Measurements taken from patent US12421193B2, “GPR52 modulators and methods of use” (Neurocrine Biosciences, Inc., priority 2020, dated 2025).

Target: T1, recombinant human GPR52 (Homo sapiens, UniProt Q9Y2T5)
T1 construct: expressed in transfected cells
Experiment: TR-FRET cAMP assay (LANCE Ultra cAMP Kit), GPR52 activity
Format: cell-based
Details: Flp-In-CHO cells stably expressing recombinant human GPR52; cAMP production, normalized to the positive control
Summary of the method: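 Flp-In CHO cells stably expressing human GPR52 (2000/well) in stimulation buffer with 0.5 mM IBMX, pH 7.4, were exposed to compound in 10-point duplicate curves for 30 min at room temperature. cAMP was detected by LANCE Ultra TR-FRET, and EC50 was taken from nonlinear fits normalized to the positive control.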

T1 sequence (Q9Y2T5 whole entry): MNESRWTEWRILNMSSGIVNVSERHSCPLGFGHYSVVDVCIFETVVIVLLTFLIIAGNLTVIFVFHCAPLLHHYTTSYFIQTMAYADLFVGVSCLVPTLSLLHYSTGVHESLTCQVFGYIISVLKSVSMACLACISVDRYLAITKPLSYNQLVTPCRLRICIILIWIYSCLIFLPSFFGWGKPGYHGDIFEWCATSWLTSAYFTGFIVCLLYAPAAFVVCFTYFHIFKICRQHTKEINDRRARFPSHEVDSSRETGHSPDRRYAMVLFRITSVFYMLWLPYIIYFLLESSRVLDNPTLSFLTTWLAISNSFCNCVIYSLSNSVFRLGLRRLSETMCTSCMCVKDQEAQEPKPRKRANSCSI

Compound | EC50 [nM]
COc1cc(Cl)cc(OCc2ccnc(-c3ccc(C(N)=O)c(C)c3)c2)c1 [Example 24, 4-[4-(3-chloro-5-methoxyphenoxymethyl)pyridin-2-yl]-2-methylbenzamide] | 25 to 100
Cc1ccc(F)c(OCc2ccnc(-c3ccc(C(N)=O)c(C)c3)c2)c1 [Example 14, 4-[4-(2-fluoro-5-methylphenoxymethyl)pyridin-2-yl]-2-methylbenzamide] | 101 to 1000
Cc1cc(-c2cc(COc3cncc(C#N)c3)ccn2)ccc1C(N)=O [Example 75, 4-(4-{[(5-cyanopyridin-3-yl)oxy]methyl}pyridin-2-yl)-2-methylbenzamide] | 101 to 1000
Cc1cc(-c2cc(COc3cccc(C)c3C)ccn2)ccc1C(N)=O [Example 41, 4-[4-(2,3-dimethylphenoxymethyl)pyridin-2-yl]-2-methylbenzamide] | 101 to 1000
Cc1cc(-c2ccnc(COc3ccc4c(cnn4C)c3)c2)ccc1C(N)=O [Example 87, 4-(2-{[(1-methyl-1H-indazol-5-yl)oxy]methyl}pyridin-4-yl)-2-methyl-benzamide] | 101 to 1000
Cc1cc(-c2cc(COc3ccccc3C(F)(F)F)ccn2)ccc1C(N)=O [Example 3, 4-{4-[2-(trifluoromethyl)phenoxymethyl]pyridin-2-yl}-2-methyl benzamide] | 101 to 1000
Cc1cc(OCc2ccnc(-c3ccc(C(N)=O)c(C)c3)c2)ccc1Cl [Example 28, 4-[4-(4-chloro-3-methylphenoxymethyl)pyridin-2-yl]-2-methylbenzamide] | 101 to 1000
Cc1cc(-c2cc(COc3cccc4c3CCC4=O)ccn2)ccc1C(N)=O [Example 31, 4-(4-{[(1-oxo-2,3-dihydro-1H-inden-4-yl)oxy]methyl}pyridin-2-yl)-2-methylbenzamide] | 101 to 1000
Cc1ccc(OCc2ccnc(-c3ccc(C(N)=O)c(C)c3)c2)cc1F [Example 8, 4-[4-(3-fluoro-4-methylphenoxymethyl)pyridin-2-yl]-2-methylbenzamide] | 101 to 1000
